Assay results from patent publication EP0514133A1, “Benzodiazepine derivatives, compositions containing them and their use in therapy” (priority 1991, dated 1992).

What was measured:
Gastrin Receptor = target: T1, Gastrin Receptor (Cavia porcellus, UniProt H0VZC5); assay: Gastrin Receptor Binding in Guinea Pig Gastric Glands, 125I-gastrin; design: from tissue; host or cells: isolated guinea pig gastric mucosal glands; conditions: 0.1 nM 125I-gastrin, 25°C 30 minutes
T1 sequence (H0VZC5 1-426): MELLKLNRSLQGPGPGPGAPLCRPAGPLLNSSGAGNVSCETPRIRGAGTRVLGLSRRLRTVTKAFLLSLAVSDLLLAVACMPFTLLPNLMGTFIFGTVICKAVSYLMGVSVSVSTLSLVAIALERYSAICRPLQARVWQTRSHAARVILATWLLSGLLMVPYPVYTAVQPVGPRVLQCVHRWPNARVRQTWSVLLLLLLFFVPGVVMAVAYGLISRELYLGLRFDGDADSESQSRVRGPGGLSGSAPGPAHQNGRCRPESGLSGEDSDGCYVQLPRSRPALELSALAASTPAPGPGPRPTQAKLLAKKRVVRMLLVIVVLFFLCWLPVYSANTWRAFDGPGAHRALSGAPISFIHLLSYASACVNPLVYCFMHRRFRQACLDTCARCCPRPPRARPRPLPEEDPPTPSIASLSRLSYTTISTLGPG
Method: Gastrin antagonist activity of compounds of Formula I was determined using the following assay.
Guinea pig gastric mucosal glands were prepared by the procedure of Chang et. al., Science, 230, 177-179 (1985) with slight modifications. […] The tissues were passed twice through a 5 ml syringe to liberate the gastric glands, and then filtered through Nitex (trademark) #202 gauge nylon mesh. The filtered glands were centrifuged at 272 g for 5 minutes and washed twice by resuspension in 25 ml buffer and centrifugation.
The washed guinea pig gastric glands prepared as above were resuspended in 25 ml of standard buffer. For binding studies, to 250 µl of gastric glands, 30 µl of buffer (for total binding) or gastrin (3 µM final concentration, for nonspecific binding) or test compound and 20 µl of ¹²⁵I-gastrin (NEN, 2200 Ci/mmole, 0.1 nM final concentration) were added. All assays were run in triplicate. […] The reaction mixtures, after incubation at 25°C for 30 minutes in a shaking water bath were rapidly filtered (Brandell 24 well cell harvester) over Whatman G/F B filters presoaked in assay buffer and immediately washed further with 3 x 4 ml of 100 mM ice cold NaCl. The radioactivity on the filters was measured using a LKB gamma counter.

[1] = target: T2, CCK receptor (brain, cortex) (Cavia porcellus, UniProt H0VZC5); assay: biochemical; format: binding, guinea pig; conditions: guinea pig cortex membranes, 50 pM 125I-CCK-8, 25°C 2 hours; read-out: IC50 ^125I-CCK Brain
T2 construct: the cortex was removed and homogenized in 25 mL ice-cold 0.32 M sucrose; from tissue; host or cells: guinea pig brain cortex P2 membrane pellet
T2 sequence (H0VZC5 1-426): T1 sequence (H0VZC5 1-426)
Method: CCK-8 sulphated was radiolabelled and the binding was performed according to the description for the pancreas method with minor modifications.
Male Hartley guinea pigs (300-500g) were sacrificed by decapitation and the cortex was removed and homogenized in 25 mL ice-cold 0.32 M sucrose. The homogenates were centrifuged at 1000 g for 10 minutes and the resulting supernatant was recentrifuged at 20,000 g for 20 minutes. The P₂ pellet was resuspended in binding assay buffer (20mM HEPES, 5 mM MgCl₂, 0.25 mg/ml bacitracin, 1 mM EGTA pH 6.5 at 25°C), using a Teflon (trademark) homogenizer (5 strokes at 500 rpm) to give a final concentration of 10 mg original wet weight/1.2 ml buffer. […] All assays were run in duplicate. The reaction mixtures were incubated at 25°C for 2 hours and then the reaction was terminated by rapid filtration (Brandell 24 well cell harvester) on Whatman GF/C filters with 3 x 5 ml washes of cold 100 mM NaCl. The radioactivity on the filters was counted with a LKB gamma counter.
(§1) Drug displacement studies were performed with at least 10 concentrations of compounds of Formula I and the IC₅₀ values were determined by regression analysis IC₅₀ refers to the concentration of the compound required to inhibit 50% of specific binding of ¹²⁵I-CCK-8.

CCK receptor (pancreas) = target: T3, CCK receptor (pancreas) (Rattus norvegicus, UniProt P30551); assay: biochemical; format: binding; conditions: rat pancreas membranes, 50 pM 125I-CCK-8, 25°C 2 hours
T3 construct: The whole pancreas was dissected free of fat tissue and was homogenized; from tissue; host or cells: rat pancreas membrane homogenate
T3 sequence (P30551 1-444): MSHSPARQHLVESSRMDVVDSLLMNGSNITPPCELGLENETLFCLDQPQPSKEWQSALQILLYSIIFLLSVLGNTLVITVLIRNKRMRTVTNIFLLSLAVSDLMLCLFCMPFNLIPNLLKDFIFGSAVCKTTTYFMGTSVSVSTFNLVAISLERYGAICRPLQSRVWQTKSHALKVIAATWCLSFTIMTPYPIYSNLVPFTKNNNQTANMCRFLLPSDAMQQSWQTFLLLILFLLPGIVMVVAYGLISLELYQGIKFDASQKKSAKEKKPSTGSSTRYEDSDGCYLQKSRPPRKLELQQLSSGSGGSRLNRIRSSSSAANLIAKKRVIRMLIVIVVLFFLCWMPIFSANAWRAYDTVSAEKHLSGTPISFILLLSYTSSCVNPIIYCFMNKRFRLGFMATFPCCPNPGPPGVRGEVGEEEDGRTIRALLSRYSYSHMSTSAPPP
Method: CCK-8 sulphated was radiolabelled with ¹²⁵I-Bolton Hunter reagent (2000 Ci/mmole). Receptor binding was performed according to Chang and Lotti (Proc. Natl. Acad. Sci. 83, 4923-4926, 1986) with minor modifications.
Male Sprague-Dawley rats (150-200g) were sacrificed by decapitation. The whole pancreas was dissected free of fat tissue and was homogenized in 25 volumes of ice-cold 10 mM N-2-hydroxyethyl-piperazine-N′-2-ethane sulphonic acid (HEPES) buffer with 0.1% soya bean trypsin inhibitor (pH 7.4 at 25°C) with a Kinematica Polytron. The homogenates were centrifuged at 47,800 g for 10 min. Pellets were resuspended in 10 volumes of binding assay buffer (20mM (HEPES)), 1mM ethylene glycol-bis-(β-aminoethylether-N,N′-tetraacetic acid) (EGTA), 5mM MgCl₂, 150 mM NaCl, bacitracin 0.25 mg/ml, soya bean trypsin inhibitor 0.1 mg/ml, and bovine serum albumin 2 mg/ml pH 6.5 at 25°C) using a Teflon (trademark) homogenizer, 15 strokes at 500 rpm. The homogenate was further diluted in binding assay buffer to give a final concentration of 0.5 mg original wet weight/1 ml buffer. […] All assays were run in duplicate. The reaction mixtures were incubated at 25°C for 2 hours and the reaction terminated by rapid filtration (Brandell 24 well cell harvester) over Whatman GF/C filters, washing 3 x 4 mls with ice-cold 100 Mm NaCl. The radioactivity on the filters was counted with a LKB gamma counter.
as §1

Compound	IC50 (Gastrin Receptor) [nM]	IC50 [1] [nM]	IC50 (CCK receptor (pancreas)) [nM]
Cc1cccc(NC(=O)NC2N=C(C3CCCCC3)c3ccccc3N(C)C2=O)c1 (single isomer, unassigned) [7 (Peak A)]	0.92	0.47	–
CC(C)S(=O)(=O)NC(=O)c1cccc(NC(=O)NC2N=C(C3CCCCC3)c3ccccc3N(C)C2=O)c1 (single isomer, unassigned) [24 (Peak A)]	0.7	–	1180
CN1C(=O)C(NC(=O)Nc2cccc(-c3cc(=O)c(O)co3)c2)N=C(C2CCCCC2)c2ccccc21 (racemic) [Example 43, N-[3(R,S)-5-Cyclohexyl-2,3-dihydro-1-methyl-2-oxo-1H-1,4-benzodiazepin-3-yl] N′-[3-(5-hydroxy-4-pyron-2-yl)phenyl] urea]	–	2.1	17.8
CCN1C(=O)C(NC(=O)Nc2cccc(C(=O)NS(=O)(=O)C(C)C)c2)N=C(C2CCCC2)c2ccccc21 (racemic) [Example 30, N-[3(R,S)-5-Cyclopentyl-2,3-dihydro-1-ethyl-2-oxo-1H-1,4-benzodiazepin-3-yl] N′-[3-(isopropylsulphonylaminocarbonyl)phenyl] urea]	–	3.2	170
CC(C)S(=O)(=O)NC(=O)c1cccc(NC(=O)NC2N=C(C3CCCCC3)c3ccccc3N(C)C2=O)c1 (racemic) [Example 12, N-[3(R,S)-5-Cyclohexyl-2,3-dihydro-1-methyl-2-oxo-1H-1,4-benzodiazepin-3-yl] N′-[3-(isopropylsulphonylaminocarbonyl)phenyl] urea]	3.24	–	12.4
CCCN1C(=O)C(NC(=O)Nc2cccc(C(=O)NS(C)(=O)=O)c2)N=C(C2CCCCC2)c2ccccc21 (racemic) [Example 25, N-[3(R,S)-5-Cyclohexyl-2,3-dihydro-1-propyl-2-oxo-1H-1,4-benzodiazepin-3-yl] N′-(3-(methylsulphonylaminocarbonyl)phenyl]urea]	–	1.9	220
CCCN1C(=O)C(NC(=O)Nc2cccc(C(=O)NS(=O)(=O)C(C)C)c2)N=C(C2CCCC2)c2ccccc21 (racemic) [Example 36, N-[3(R,S)-5-Cyclopentyl-2,3-dihydro-1-propyl-2-oxo-1H-1,4-benzodiazepin-3-yl] N′-[3-(isopropylsulphonylaminocarbonyl)phenyl] urea]	–	1.2	1300
CC(C)CN1C(=O)C(NC(=O)Nc2cccc(C(=O)NS(C)(=O)=O)c2)N=C(C2CCCCC2)c2ccccc21 (racemic) [Example 19, N-(3(R,S)-5-Cyclohexyl-2,3-dihydro-1-(2-methylpropyl)-2-oxo-1H-1,4-benzodiazepin-3-yl] N′-[3-(methylsulphonylaminocarbonyl)phenyl] urea]	–	12	570
Cc1cccc(NC(=O)NC2N=C(C3CCCCC3)c3ccccc3N(C)C2=O)c1 (racemic) [Example 1, N-[3(R,S)-5-Cyclohexyl-2,3-dihydro-1-methyl-2-oxo-1H-1,4-benzodiazepin-3-yl] N′-[3-methylphenyl] urea]	0.83	2.2	–
CN1C(=O)C(NC(=O)Nc2cccc(S(=O)(=O)Nc3nccs3)c2)N=C(C2CCCCC2)c2ccccc21 (racemic) [Example 26, N-[3(R,S)-5-Cyclohexyl-2,3-dihydro-1-methyl-2-oxo-1H-1,4-benzodiazepin-3-yl] N′-[3-(thiazol-2-ylaminosulphonyl)phenyl]urea]	–	2.3	60
CN1C(=O)C(NC(=O)Nc2cccc(S(=O)(=O)Nc3nncs3)c2)N=C(C2CCCCC2)c2ccccc21 (racemic) [Example 21, N-[3(R,S)-5-Cyclohexyl-2,3-dihydro-1-methyl-2-oxo-1H-1,4-benzodiazepin-3-yl] N′-[3-(1,3,4-thiadiazol-2-ylaminosulphonyl)phenyl]urea]	–	1.2	9.7
CCCN1C(=O)C(NC(=O)Nc2cccc(C(=O)NS(=O)(=O)C(C)(C)C)c2)N=C(C2CCCC2)c2ccccc21 (racemic) [Example 37, N-[3(R,S)-5-Cyclopentyl-2,3-dihydro-1-propyl-2-oxo-1H-1,4-benzodiazepin-3-yl] N′-[3-(1,1-dimethylethylsulphonylaminocarbonyl)phenyl] urea]	–	0.19	960
CN1C(=O)C(NC(=O)Nc2cccc(C(=O)NS(=O)(=O)c3ccccc3)c2)N=C(C2CCCCC2)c2ccccc21 (racemic) [Example 14, N-[3(R,S)-5-Cyclohexyl-2,3-dihydro-1-methyl-2-oxo-1H-1,4-benzodiazepin-3-yl] N′-[3-(phenylsulphonylaminocarbonyl)phenyl] urea]	–	0.58	11.1
CC(C)CN1C(=O)C(NC(=O)Nc2cccc(-c3nn[nH]n3)c2)N=C(C2CCCC2)c2ccccc21 (racemic) [Example 3, N-[3(R,S)-5-Cyclopentyl-2,3-dihydro-1-(2-methylpropyl)-2-oxo-1H-1,4-benzodiazepin-3-yl] N′-[3-tetrazol-5-ylphenyl]urea]	–	0.3	800
CCCN1C(=O)C(NC(=O)Nc2cccc(-c3nn[nH]n3)c2)N=C(C2CCCC2)c2ccccc21 (racemic) [Example 6, N-[3(R,S)-5-Cyclopentyl-2,3-dihydro-1-propyl-2-oxo-1H-1,4-benzodiazepin-3-,yl] N′-[3-tetrazol-5-ylphenyl] urea]	–	0.96	1100
CCS(=O)(=O)NC(=O)c1cccc(NC(=O)NC2N=C(C3CCCCC3)c3ccccc3N(C)C2=O)c1 (racemic) [Example 23, N-[3(R,S)-5-Cyclohexyl-2,3-dihydro-1-methyl-2-oxo-1H-1,4-benzodiazepin-3-yl] N′-[3-(ethylsulphonylaminocarbonyl)phenyl]urea]	–	0.96	5
